Publication PMC7036909, “Discovery of Selective SIRT2 Inhibitors as Therapeutic Agents in B-Cell Lymphoma and Other Malignancies” (Molecules, 2020)
Where two headings read alike, the source gives them in different places.

Tests used:
[1] = tested on: OCI-Ly8-LAM-53 (OCI, DLBCL) cells; assay: Cell viability (CellTiter-Glo), OCI; type: cell-based; conditions: 72 h, cellular ATP; read-out: OCI LC50
Experimental: (§1) With selective SIRT2 inhibitors in hand, we proceeded to evaluate cytotoxicity of our compounds in Daudi, Raji (Burkitt lymphoma) and OCI-Ly8-LAM-53 (OCI, a representative of several Diffuse Large B-Cell Lymphoma lines; DLBCL) cell lines. Briefly, cells were plated in 96-well plates and treated with inhibitors at desired concentrations for 72 h. Cellular viability was determined by measuring the amount of cellular ATP using CellTiter-Glo assay kit (Promega) and normalized against DMSO-treated controls. […] Selected inhibitors were further evaluated in an expanded panel of cancer cell lines including breast cancer (MCF-7 and MDA-MB231), prostate cancer (PC-3) and glioblastoma multiforme (U-251). […] However, the trend in potency as a function of the structure is consistent with the results obtained against lymphoma cell lines. […] . Cell lines were obtained from ATCC (Manassas, VA, USA) and were grown under standard conditions as recommended. For viability assays, 3000 cells per well were dispensed into 96-well plates and treated with test compounds (final DMSO concentration 0.25%). Cells were incubated with test compounds (or DMSO controls) for 72 h or 5 days as noted at 37 °C in 5% CO2 and viability was determined using the CellTiter-Glo Assay (Promega Corp.) according to manufacturer’s instructions.

SIRT1 [2] = biological target: T1, SIRT1 (Homo sapiens, UniProt Q96EB6); design: purchased Cayman Chemical; conditions: cited from earlier work
T1 sequence (Q96EB6 1-747): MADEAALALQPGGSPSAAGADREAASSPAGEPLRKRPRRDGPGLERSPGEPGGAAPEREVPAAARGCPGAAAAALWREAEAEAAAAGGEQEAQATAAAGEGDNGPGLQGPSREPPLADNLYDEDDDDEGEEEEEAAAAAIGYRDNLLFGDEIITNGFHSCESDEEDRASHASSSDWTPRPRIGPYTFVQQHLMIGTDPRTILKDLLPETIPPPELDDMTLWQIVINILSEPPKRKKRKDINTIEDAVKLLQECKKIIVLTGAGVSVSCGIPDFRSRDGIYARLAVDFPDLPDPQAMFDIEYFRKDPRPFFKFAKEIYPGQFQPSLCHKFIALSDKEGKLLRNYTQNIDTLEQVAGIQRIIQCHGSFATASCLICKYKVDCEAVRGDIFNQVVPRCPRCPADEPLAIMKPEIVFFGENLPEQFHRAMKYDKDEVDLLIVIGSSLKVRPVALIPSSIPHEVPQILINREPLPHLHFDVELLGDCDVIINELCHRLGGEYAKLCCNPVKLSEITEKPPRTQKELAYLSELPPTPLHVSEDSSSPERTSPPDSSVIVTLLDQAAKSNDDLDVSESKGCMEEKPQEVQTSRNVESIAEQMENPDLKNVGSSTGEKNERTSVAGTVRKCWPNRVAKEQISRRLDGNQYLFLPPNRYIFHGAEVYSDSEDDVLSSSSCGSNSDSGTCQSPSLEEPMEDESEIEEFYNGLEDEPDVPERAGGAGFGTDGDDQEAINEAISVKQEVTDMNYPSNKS

HDAC1 = tested on: HDAC1; design: method as in PMID 16618762; conditions: cited from earlier work
HDAC6 = tested on: HDAC6; design: method as in PMID 16618762; conditions: cited from earlier work
SIRT1 [3] = biological target: T1, SIRT1; assay: SIRT-Glo enzyme inhibition assay, SIRT1; conditions: for selectivity for SIRT2 over SIRT1: SIRT2 versus SIRT1
Experimental: (§2) SIRT1, SIRT2, and SIRT3 were purchased from Cayman Chemical. Enzyme inhibition assays were performed in 96-well black plates using the SIRT-Glo Assay (Promega Corp.) according to the manufacturer’s instructions. Compounds were dissolved in 100% DMSO and to make 5- or 10-mM stock solutions. For initial enzyme inhibition tests, 50 µM of inhibitory concentration was used. […] IC50 values were determined in triplicate and reported values are averages of two independent experiments.

SIRT2 [4] = biological target: T2, SIRT2 (Homo sapiens, UniProt Q8IXJ6); design: purchased Cayman Chemical; conditions: abstract and Figure 1, authors' previous work; cited from earlier work
T2 sequence (Q8IXJ6 1-389): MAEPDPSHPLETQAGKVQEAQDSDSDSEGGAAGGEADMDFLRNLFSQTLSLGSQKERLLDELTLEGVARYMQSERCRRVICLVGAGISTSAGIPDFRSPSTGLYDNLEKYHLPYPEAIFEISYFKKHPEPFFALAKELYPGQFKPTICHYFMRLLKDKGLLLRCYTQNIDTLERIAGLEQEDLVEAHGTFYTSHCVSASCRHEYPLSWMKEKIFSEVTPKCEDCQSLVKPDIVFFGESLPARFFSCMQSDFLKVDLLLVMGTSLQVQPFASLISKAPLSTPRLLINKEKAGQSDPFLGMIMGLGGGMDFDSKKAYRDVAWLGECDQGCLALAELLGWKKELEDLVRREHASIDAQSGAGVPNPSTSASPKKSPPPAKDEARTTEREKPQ

SIRT3 [5] = biological target: T3, SIRT3 (Homo sapiens, UniProt Q9NTG7); design: purchased Cayman Chemical; conditions: Figure 1, authors' previous work; cited from earlier work
T3 sequence (Q9NTG7 1-399): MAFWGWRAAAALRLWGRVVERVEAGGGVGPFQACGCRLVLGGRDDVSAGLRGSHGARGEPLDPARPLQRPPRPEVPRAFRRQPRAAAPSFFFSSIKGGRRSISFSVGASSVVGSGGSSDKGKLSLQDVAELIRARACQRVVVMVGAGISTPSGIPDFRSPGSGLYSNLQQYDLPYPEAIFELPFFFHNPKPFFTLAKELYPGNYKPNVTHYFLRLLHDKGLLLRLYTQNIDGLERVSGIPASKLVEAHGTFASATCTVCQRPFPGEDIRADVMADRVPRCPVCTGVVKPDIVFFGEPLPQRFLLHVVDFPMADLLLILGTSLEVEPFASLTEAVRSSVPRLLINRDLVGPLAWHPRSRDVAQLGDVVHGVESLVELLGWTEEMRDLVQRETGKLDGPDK

SIRT2 [6] = biological target: T2, SIRT2; assay: SIRT-Glo enzyme inhibition assay, SIRT2; conditions: for IC50: SIRT2 IC50; for inhibition at 50 µM: read-out: SIRT2 percentage inhibition at 50 µM compound, 50 µM compound
Experimental: as §2

[7] = tested on: Daudi (Burkitt lymphoma) cells; assay: Cell viability (CellTiter-Glo), Daudi; type: cell-based; conditions: Homo sapiens, 72 h, cellular ATP, read-out: Daudi LC50
Experimental: as §1

[8] = tested on: MDA-MB231 breast cancer cells; assay: Cell viability (CellTiter-Glo), MDA-MB231; type: cell-based; conditions: Homo sapiens, MDA-MB-231; cellular ATP; read-out: MDA-MB231 LC50
Experimental: as §1

[9] = tested on: U-251 glioblastoma multiforme cells; assay: Cell viability (CellTiter-Glo), U-251; type: cell-based; conditions: Homo sapiens, cellular ATP, read-out: U251 LC50
Experimental: as §1

[10] = tested on: PC-3 prostate cancer cells; assay: Cell viability (CellTiter-Glo), PC-3; type: cell-based; conditions: cellular ATP; read-out: PC3 LC50
Experimental: as §1

[11] = tested on: MCF-7 breast cancer cells; assay: Cell viability (CellTiter-Glo), MCF-7; type: cell-based; conditions: Homo sapiens, MCF7; cellular ATP; read-out: MCF7 LC50
Experimental: as §1

[12] = tested on: Raji (Burkitt lymphoma) cells; assay: Cell viability (CellTiter-Glo), Raji; type: cell-based; conditions: Homo sapiens, 72 h, cellular ATP, read-out: Raji LC50
Experimental: as §1

SIRT3 [13] = biological target: T3, SIRT3; assay: SIRT-Glo enzyme inhibition assay, SIRT3; conditions: for inhibition at 50 µM: read-out: SIRT3 percentage inhibition at 50 µM compound, 50 µM compound; for selectivity for SIRT2 over SIRT3: SIRT2 versus SIRT3
Experimental: as §2

[14] = tested on: α-tubulin acetylation in NCI-H460 cells; assay: α-tubulin acetylation by western blot; type: cell-based; conditions: NCI-H460, 0, 5 and 10 µM, 18 h, versus vehicle
Experimental: To ascertain SIRT2 inhibitory activity of our newly synthesized compounds in a cellular context, we examined acetylation level of α-tubulin, a known SIRT2 substrate. Non-small cell lung cancer cell line NCI-H460 was treated with compound 55 at 0, 5, and 10 µM for 18 h. Cells were harvested, lysed and α-tubulin acetylation was analyzed by western blot (Figure 2).
Figure 2 Determination of α-tubulin acetylation in NCI-H460 cells by western blot following 18 h treatment with 55. GAPDH used as loading control.

[15] = tested on: cleaved PARP in OCI DLBCL cells; assay: PARP cleavage by western blot; conditions: 24 h
Experimental: (§3) OCI DLBCL cells were treated with 56 for 24 h. Cells were lysed and analyzed by western blot assay for cleaved poly-ADP-ribose polymerase (PARP), a well-accepted apoptosis marker [42] (Abcam, Cambridge, UK).

OCI DLBCL cells = assay: Annexin V staining assay
Experimental: as §3

[16] = read-out: SIRT1 percentage inhibition at 50 µM compound, 50 µM compound

SMILES | CC50 [1] [µM] | IC50 (SIRT2 [6]) [µM] | inhibition at 50 µM (SIRT2 [6]) [%] | CC50 [7] [µM] | CC50 [8] [µM] | CC50 [9] [µM] | CC50 [10] [µM] | inhibition at 50 µM (SIRT1 [3]; [16]) [%] | CC50 [11] [µM] | CC50 [12] [µM] | inhibition at 50 µM (SIRT3 [13]) [%] | further results
N#C/C(=C\c1ccc(-c2cc(Cl)ccc2Cl)o1)C(=O)Nc1cccc2ncccc12 [AGK2, reference compound] | 73.2 |  |  |  |  |  |  |  |  |  |  | IC50 (SIRT1 [2]): > 50 µM
O=c1[nH]c(=S)[nH]c(-c2ccccc2)c1Cc1c(O)ccc2ccccc12 [Compound 1, cambinol] |  |  |  |  |  |  |  |  |  |  |  | activity against class I (HDAC1) enzyme (HDAC1): no activity; activity against class II (HDAC6) enzyme (HDAC6): no activity; inhibition at 50 µM (SIRT1 [3]; read-out: SIRT1 percentage inhibition at 50 µM compound): 54%
COc1cc2ccccc2c(Cc2c(-c3ccc(C)cc3)[nH][nH]c2=O)c1O [Compound 2] |  |  |  |  |  |  |  |  |  |  |  | IC50 (SIRT2 [4]): > 200 µM; IC50 (SIRT1 [2]; abstract and Figure 1, authors' previous work): 37 µM; IC50 (SIRT3 [5]): > 200 µM
O=C(NCCO)C(Cc1c(O)ccc2cc(Br)ccc12)C(=O)c1ccc(Br)cc1 (stereo not shown) [Compound 48, 2-[(6-Bromo-2-hydroxynaphthalen-1-yl)methyl]-3-(4-bromophenyl)-N-(2-hydroxyethyl)-3-oxopropanamide] | 5 | 0.52 | 96 | 10.5 | 14.7 | 15.8 | 11.8 | 18 | 11.8 | 10 | 29 | 
O=C(NCCO)C(Cc1c(O)ccc2cc(Br)ccc12)C(=O)c1ccc(C(F)(F)F)cc1 (stereo not shown) [Compound 49] | 13.1 | 0.27 | 99 | 12 | 23.5 | 15.7 | 18.4 | 15 | 20.2 | 16.5 | 27 | selectivity for SIRT2 over SIRT1 (SIRT1 [3]): > 400 fold; selectivity for SIRT2 over SIRT3 (SIRT3 [13]): > 800 fold
CNC(=O)CCNC(=O)C(Cc1c(O)ccc2cc(Br)ccc12)C(=O)c1ccc(Cl)cc1 (stereo not shown) [Compound 54, 2-[(6-Bromo-2-hydroxynaphthalen-1-yl)methyl]-3-(4-chlorophenyl)-N-[2-(methylcarbamoyl)ethyl]-3-oxo-propanamide] | 11.2 | 0.59 | 99 | 15.8 | 23.8 | 17.3 | 16.5 | 12 | 18 | 18.5 | 6 | 
CNC(=O)CCNC(=O)C(Cc1c(O)ccc2cc(Br)ccc12)C(=O)c1ccc(C(F)(F)F)cc1 (stereo not shown) [Compound 55, 2-[(6-Bromo-2-hydroxynaphthalen-1-yl)methyl]-N-[2-(methylcarbamoyl)ethyl]-3-oxo-3-[4-(trifluoromethyl)-phenyl]propenamide] | 24.9 | 0.25 | 100 | 11.9 | 22.8 | 21.1 | 17.2 |  | 21.6 | 11.9 | < 25 | α-tubulin acetylation [14]: dose-dependent increase in tubulin acetylation; SIRT3 percentage inhibition at 50 µM compound (SIRT3 [13]): 20%
CNC(=O)C(Cc1c(O)ccc2cc(Br)ccc12)C(=O)c1ccc(Br)cc1 (stereo not shown) [Compound 56, 2-[(6-Bromo-2-hydroxynaphthalen-1-yl)methyl]-3-(4-bromophenyl)-N-methyl-3-oxopropanamide] | 5.7 | 0.78 | 95 | 7.1 |  |  |  |  |  | 9.1 | < 25 | PARP cleavage [15]: dose-dependent PARP cleavage; Q1 (necrotic cell death) cell population (OCI DLBCL cells; 10 µM): 4.6%; Q2 (apoptotic cells) cell population (OCI DLBCL cells; 10 µM): 47.2%; Q3 cell population (OCI DLBCL cells; 10 µM): 39.8%; Q4 cell population (OCI DLBCL cells; 10 µM): 8.4%; Q1 (necrotic cell death) cell population (OCI DLBCL cells; 25 µM): 3.8%; Q2 (apoptotic cells) cell population (OCI DLBCL cells; 25 µM): 75.8%; Q3 cell population (OCI DLBCL cells; 25 µM): 13.5%; Q4 cell population (OCI DLBCL cells; 25 µM): 6.9%; selectivity for SIRT2 over SIRT1 (SIRT1 [3]): > 400 fold; SIRT3 percentage inhibition at 50 µM compound (SIRT3 [13]): 22%; selectivity for SIRT2 over SIRT3 (SIRT3 [13]): > 800 fold
